According to patent US11465986B2, “Crystal form of c-MET inhibitor and salt form thereof and preparation method therefor” (FUJIAN AKEYLINK BIOTECHNOLOGY CO., LTD., priority 2018, dated 2022):

How the values were obtained:
[1] = Liver microsome metabolism, human; format: in vitro ADME
[2] = Liver microsome metabolism, mouse; format: in vitro ADME
MHCC97-H cells [3] = system: MHCC97-H cells
Method: The cell plates were incubated in a carbon dioxide incubator for 3 days.

[4] = Liver microsome metabolism, rat; format: in vitro ADME
[5] = system: human liver cancer MHCC97H cell xenograft tumor; experiment: In vivo efficacy, MHCC97H subcutaneous xenograft tumor model; parameters: species or system BALB/c nude mice; conditions: for tumor volume (24th day): 24th day after administration, average value±SEM; for T/C / TGI: based on the tumor volume on the 24th day after administration
Method: MHCC97H cells were cultured in a single layer in-vitro. The culturing condition was RPMI1640 medium supplemented with 10% heat-inactivated fetal bovine serum, 1% penicillin-streptomycin double antibody under 37° C., 5% carbon dioxide. Digestion and passage treatment with trypsin-EDTA was done twice a week. When the cells were in the exponential growing phase, the cells were collected, counted and inoculated.
BALB/c nude mice, male. 6-8 weeks old, weighting 18-22 g.
0.2 mL of a cell suspension containing 5×10^6 MHCC97H was subcutaneously inoculated into the right back of each mouse. Drugs were administered by group after the average tumor volume reached approximately 172 mm^3.
Investigation of whether the tumor growth was inhibited, delayed or cured. The diameters of the tumor were measured twice a week using a vernier caliper. The formula for calculating the tumor volume is V=0.5a×b^2, and a and b represent the long and short diameters of the tumor respectively. The antitumor effect (TGI) of the compound was evaluated by T-C (days) and TIC (%).
Remark: a. average value±SEM; b. p value was calculated based on the tumor volume.

MHCC97-H cells [6] = conditions: read-out: IC50 on MHCC97-H cells; background section; cited from earlier work
[7] = liver microsomes, read-out: t1/2 by liver microsome metabolism

Row | SMILES | t1/2 by liver microsome metabolism [1] [min] | t1/2 by liver microsome metabolism [2] [min] | Inhibitory activity on MHCC97H cell, in words (MHCC97-H cells [3]) | t1/2 by liver microsome metabolism [4] [min] | tumor volume (24th day) [5] [mm^3] | Tumor inhibitory effect compared with tepotinib, in words ([5]; MHCC97H liver cancer cell subcutaneous xenograft tumor model) | T/C [5] [%] | TGI [5] [%] | half-life [1, 7] [min] | IC50 (MHCC97-H cells [6]) [nM] | half-life [2, 7] [min] | half-life [4, 7] [min]
1 | C[C@H](c1cccc(-c2ncc(OCC3CCN(C)CC3)cn2)c1)n1cc(-c2cc(C#N)ccn2)cc(F)c1=O [compound represented by formula (I)] | 62.1 | 49.1 | good inhibitory activity | 36.5 | 153 ± 12 | better tumor inhibitory effect than tepotinib | 7.4 | 101.0 | – | – | – | –
2 | CN1CCC(COc2cnc(-c3cccc(Cn4nc(-c5cccc(C#N)c5)ccc4=O)c3)nc2)CC1 [Tepotinib, reference compound] | – | – | – | – | 255 ± 5 | – | 12.4 | 95.6 | 48.3 | 6.2 | 12.4 | 10.5
